Data published in patent US4956489A (Bioeurope, priority 1987, dated 1990).
Read-outs that look alike come from different tables or passages of the source.

Assays:
solubility in water = type: physicochemical; details: in water at 25° C. and pH 6
From the text: (§1) The amounts of residual solvent present in the final aqueous phase are removed by extraction with 2 liters of ethyl acetate. […] The aqueous phase is then concentrated by evaporation under vacuo, after which it is lyophilized. The structure of the product was verified by elemental analysis and proton NMR spectroscopy.
(b) The lactyl-L-tyrosine ethyl ester is purified and deesterified according to the procedure described in Example 1 in relation to L-malyl-L-tyrosine ethyl ester, to obtain L-lactyl-L-tyrosine monosodium salt.

[1] = solubility in ethyl acetate; type: physicochemical; details: extraction of the aqueous phase with ethyl acetate
From the text: as §1

[2] = read-out: solubility in water, equivalent molar

Row | Structure (SMILES) | solubility (solubility in water; read-out: solubility in water) [mg/mL] | solubility (solubility in water; [2]) [mM] | solubility in ethyl acetate [1]
1 | C[C@H](O)C(=O)N[C@@H](Cc1ccc(O)cc1)C(=O)[O-].[Na+] | ≥ 330 | ≥ 1200 | –
2 | O=C([O-])C[C@H](O)C(=O)N[C@@H](Cc1ccc(O)cc1)C(=O)[O-].[Na+].[Na+] [L-malyl-L-tyrosine disodium salt] | 820 | 2400 | not soluble in ethyl acetate
